# Laboratory results: patent US10858367B2, “Compounds” (GLAXOSMITHKLINE INTELLECTUAL PROPERTY DEVELOPMENT LIMITED, priority 2017, dated 2020)
# Assays:
# [1] = target: T1, full length G2019 human LRRK2 (Homo sapiens, UniProt Q5S007, R50H); experiment: Full length G2019 human LRRK2 Inhibition Mass Spectrometry assay; type: biochemical; settings: 25 nM LRRK2 enzyme, 25 uM LRRKtide, 2 mM ATP; RapidFire mass spectrometry; read-out: pIC50 in the full length G2019 human LRRK2 Inhibition Mass Spectrometry assay (converted)
# T1 construct: made in house; host or cells: HEK293 6E cells transduced with BacMam virus (virus generated in Sf9 cells)
# T1 sequence (Q5S007 with tags, fused parts or gaps R50H): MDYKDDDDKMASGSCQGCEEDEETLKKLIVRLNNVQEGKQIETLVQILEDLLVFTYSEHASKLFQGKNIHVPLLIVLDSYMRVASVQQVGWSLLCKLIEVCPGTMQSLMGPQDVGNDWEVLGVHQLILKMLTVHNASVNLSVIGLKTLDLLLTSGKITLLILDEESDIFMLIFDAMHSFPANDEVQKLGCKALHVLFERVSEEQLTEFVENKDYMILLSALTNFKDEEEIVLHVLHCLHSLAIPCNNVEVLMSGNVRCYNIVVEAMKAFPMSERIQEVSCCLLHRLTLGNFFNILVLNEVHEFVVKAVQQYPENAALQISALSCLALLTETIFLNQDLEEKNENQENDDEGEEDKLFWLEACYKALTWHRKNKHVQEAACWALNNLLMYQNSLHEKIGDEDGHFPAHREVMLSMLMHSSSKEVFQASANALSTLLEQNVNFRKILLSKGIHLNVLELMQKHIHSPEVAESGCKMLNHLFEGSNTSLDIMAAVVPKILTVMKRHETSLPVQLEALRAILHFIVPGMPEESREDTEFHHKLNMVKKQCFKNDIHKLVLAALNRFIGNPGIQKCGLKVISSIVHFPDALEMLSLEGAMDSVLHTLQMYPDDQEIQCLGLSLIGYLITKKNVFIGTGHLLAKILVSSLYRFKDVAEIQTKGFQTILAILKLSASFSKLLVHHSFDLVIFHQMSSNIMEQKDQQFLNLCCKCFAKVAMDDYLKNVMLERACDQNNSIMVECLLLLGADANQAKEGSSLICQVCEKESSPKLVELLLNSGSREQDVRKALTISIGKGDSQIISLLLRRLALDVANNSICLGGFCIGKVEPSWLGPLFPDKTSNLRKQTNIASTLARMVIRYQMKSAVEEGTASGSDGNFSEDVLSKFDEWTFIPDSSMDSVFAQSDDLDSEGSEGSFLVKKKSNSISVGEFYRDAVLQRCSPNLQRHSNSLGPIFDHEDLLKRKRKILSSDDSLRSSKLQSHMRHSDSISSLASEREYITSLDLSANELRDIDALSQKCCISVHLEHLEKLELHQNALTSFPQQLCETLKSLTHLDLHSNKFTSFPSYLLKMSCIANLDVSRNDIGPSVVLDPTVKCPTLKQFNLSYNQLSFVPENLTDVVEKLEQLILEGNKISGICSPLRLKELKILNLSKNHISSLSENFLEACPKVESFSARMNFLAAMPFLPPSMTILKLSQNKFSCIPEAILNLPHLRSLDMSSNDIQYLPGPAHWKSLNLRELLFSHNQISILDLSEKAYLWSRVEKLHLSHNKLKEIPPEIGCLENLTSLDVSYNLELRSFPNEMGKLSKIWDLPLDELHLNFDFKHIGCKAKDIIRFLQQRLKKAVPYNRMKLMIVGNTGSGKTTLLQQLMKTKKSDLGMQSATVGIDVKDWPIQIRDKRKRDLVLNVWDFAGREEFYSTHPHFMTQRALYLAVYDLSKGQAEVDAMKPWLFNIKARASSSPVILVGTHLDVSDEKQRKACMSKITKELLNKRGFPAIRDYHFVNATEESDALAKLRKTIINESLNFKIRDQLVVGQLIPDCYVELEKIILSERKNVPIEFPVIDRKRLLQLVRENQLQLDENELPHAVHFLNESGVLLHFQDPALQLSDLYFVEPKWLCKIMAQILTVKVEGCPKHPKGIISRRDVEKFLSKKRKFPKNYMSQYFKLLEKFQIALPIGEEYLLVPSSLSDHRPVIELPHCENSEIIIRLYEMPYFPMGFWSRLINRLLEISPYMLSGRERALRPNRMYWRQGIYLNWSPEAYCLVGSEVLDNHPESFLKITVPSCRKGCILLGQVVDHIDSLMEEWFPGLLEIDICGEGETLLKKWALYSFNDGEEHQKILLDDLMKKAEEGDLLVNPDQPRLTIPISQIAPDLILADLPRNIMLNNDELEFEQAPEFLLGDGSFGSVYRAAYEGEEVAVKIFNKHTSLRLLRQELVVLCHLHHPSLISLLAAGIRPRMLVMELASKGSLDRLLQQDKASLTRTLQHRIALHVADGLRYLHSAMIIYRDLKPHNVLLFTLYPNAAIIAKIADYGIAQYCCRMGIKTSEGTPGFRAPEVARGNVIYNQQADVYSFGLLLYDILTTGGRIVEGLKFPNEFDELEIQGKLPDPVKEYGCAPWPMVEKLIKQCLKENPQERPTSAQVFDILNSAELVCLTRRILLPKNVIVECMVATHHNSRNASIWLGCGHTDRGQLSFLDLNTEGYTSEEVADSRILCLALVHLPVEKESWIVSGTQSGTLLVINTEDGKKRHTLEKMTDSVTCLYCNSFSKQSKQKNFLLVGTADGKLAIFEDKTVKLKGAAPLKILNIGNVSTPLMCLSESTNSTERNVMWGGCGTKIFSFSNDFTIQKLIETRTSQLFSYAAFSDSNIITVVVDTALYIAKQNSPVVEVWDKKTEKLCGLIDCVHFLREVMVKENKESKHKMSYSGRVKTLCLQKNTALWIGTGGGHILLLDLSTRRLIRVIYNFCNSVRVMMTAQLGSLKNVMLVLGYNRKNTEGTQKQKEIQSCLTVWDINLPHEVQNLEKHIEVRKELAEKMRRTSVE
# Description: a. Full Length G2019 Human LRRK2 Inhibition Mass Spectrometry Assay
# This assay for Leucine Rich Repeat Kinase 2 (LRRK2) inhibition is based on the direct measurement of the peptide ‘LRRKtide’ (LRRKtide: RLGRDKYKT*LRQIRQ and “*” refers to the site of phosphorylation.) and phosphorylated ‘LRRKtide’ using a high throughput RapidFire mass spectrometry assay. Inhibitors are compounds that reduce the conversion of LRRKtide to phospho-LRRKtide.
# Human G2019 LRRK2 Plasmid Preparation
# Primers used for PCR cloning: • pHTBV-F:SEQ ID No: 1 • LRRK2 wt-F1:SEQ ID No: 2 • LRRK2 wt-R1: SEQ ID No: 3 • LRRK2 wt-F2: SEQ ID No: 4 • LRRK2 wt-R2: SEQ ID No: 5 • LRRK2 wt-F3:SEQ ID No: 6 • pHTBV-R: SEQ ID No: 7 pHTBV1-N-Flag-hu LRRK2 was generated by PCR amplifying the full length LRRK2 sequence with N terminal Flag tag from pcDNA3.1(+)_Human_LRRK2 (NCBI Reference Sequence: NP_940980.3) with the primers described above, and cloned into pHTBV1mcs3 vector between BamHI and KpnI sites.
# The G2019 full length Flag-LRRK2 coding sequence is SEQ ID No: 8.
# The translated amino acid sequence for human G2019 full length N terminal flag tagged LRRK2 protein is SEQ ID No: 9.
# Protein Expression & Purification a) Expression of Flag Tagged Full Length G2019 Human LRRK2
# HEK293 6E cells were incubated in a 37° C. incubator with a humidified atmosphere of 5% CO2 on an orbital shaker rotating at 110 rpm. On the day of transduction, the cell viability was higher than 98% and the cell density was in the range of 1×10^6˜1.5×10^6 cells/ml. HEK293 6E cells were centrifuged at 1,000 rpm for 10 min, and then the cells were resuspended in fresh Freestyle 293 expression medium (Invitrogen: 12338) with 0.1% F-68(Invitrogen: 24040-032) but without antibiotics (G418) at density of 1×10^6 cells/ml. BacMam virus with Flag-hu LRRK2 (genotypically normal) gene was centrifuged at 40,000 g for 2 hours, then resuspended in fresh Freestyle 293 expression medium. The resuspended virus was added into the cells in at MOI of 10. The cells were incubated in a 37° C. incubator with a humidified atmosphere of 5% CO2 in air on an orbital shaker rotating at 110 rpm. Cultures were harvested at approximately 48 hours post-transduction by centrifugation at 4,000 rpm for 20 min and pellets were frozen for purification. […]
# b) Purification of Flag Tagged Full Length G2019 Human LRRK2
# The suspended cells were lysed by sonication on ice for 30 min (2 secs on/4 sec off, 20% amplitude), and centrifuged at 10,000 rpm for 30 minutes at 4° C. The supernatant was incubated with 1 mL per litre of cell culture of anti-Flag magnetic beads (Sigma-Aldrich: M8823) at 4° C. for 3 hours, then the beads were washed by 5 mL (5 column volume) binding buffer (50 mM Tris pH7.5@ 4 C, 500 mM NaCl, 0.5 mM EDTA, 0.1% TritonX-100, 10% glycerol, freshly add 2 mM DTT) for three times. The Flag tagged LRRK2 proteins were eluted by Elution buffer (50 mM Tris pH7.5@ 4 C, 500 mM NaCl, 0.5 mM EDTA, 0.1% TritonX-100, 10% glycerol, freshly add 2 mM DTT, 250 ug/ml Flag peptide (Sigma-Aldrich:F3290)) at 4° C. for 2 hours. Flag peptide was removed by Zeba Spin Desalting Columns, 7K MWCO (Thermo-Fisher: 89893) and the buffer of eluted LRRK2 proteins was exchanged into Storage Buffer (50 mM Tris pH7.5@4 C, 150 mM NaCl, 0.5 mM EDTA, 0.02% Triton X-100, 2 mM DTT and 50% Glycerol) using Amicon Ultra Centrifugal Filter Units (100 kD) (Merck: UFC910096). Fractions containing LRRK2 proteins were pooled, aliquoted and stored at −80° C. Protein concentration was determined by Bradford protein assay, and protein purity was analyzed by NuPAG Novex 4-12% Bis-Tris Protein Gels (Invitrogen: NP0322BOX).
# Assay Protocol • 1) A 10 mM test compound was dissolved in 100% DMSO and serially diluted 1 in 4. 100 nL of this dilution series was then added to a 384 well, v bottom polypropylene plate, excluding columns 6 and 18. 100 nL of DMSO was added to columns 6 and 18 as controls wells. […]
# [2] = target: T2, LRRK2 Ser935 phosphorylation in SH-SY5Y cells over-expressing recombinant full length LRRK2 (Homo sapiens, UniProt Q5S007); experiment: Recombinant cellular LRRK2 AlphaScreen assay; type: cell-based; settings: human neuroblastoma SH-SY5Y cells, BacMam full length LRRK2, 60 minutes with compound, read-out: pIC50 in the recombinant cellular LRRK2 AlphaScreen assay (converted)
# T2 construct: A BacMam virus expressing full length recombinant LRRK2 was purchased from Invitrogen; host or cells: SH-SY5Y human neuroblastoma cells transduced with BacMam LRRK2 virus
# T2 sequence (Q5S007 whole entry): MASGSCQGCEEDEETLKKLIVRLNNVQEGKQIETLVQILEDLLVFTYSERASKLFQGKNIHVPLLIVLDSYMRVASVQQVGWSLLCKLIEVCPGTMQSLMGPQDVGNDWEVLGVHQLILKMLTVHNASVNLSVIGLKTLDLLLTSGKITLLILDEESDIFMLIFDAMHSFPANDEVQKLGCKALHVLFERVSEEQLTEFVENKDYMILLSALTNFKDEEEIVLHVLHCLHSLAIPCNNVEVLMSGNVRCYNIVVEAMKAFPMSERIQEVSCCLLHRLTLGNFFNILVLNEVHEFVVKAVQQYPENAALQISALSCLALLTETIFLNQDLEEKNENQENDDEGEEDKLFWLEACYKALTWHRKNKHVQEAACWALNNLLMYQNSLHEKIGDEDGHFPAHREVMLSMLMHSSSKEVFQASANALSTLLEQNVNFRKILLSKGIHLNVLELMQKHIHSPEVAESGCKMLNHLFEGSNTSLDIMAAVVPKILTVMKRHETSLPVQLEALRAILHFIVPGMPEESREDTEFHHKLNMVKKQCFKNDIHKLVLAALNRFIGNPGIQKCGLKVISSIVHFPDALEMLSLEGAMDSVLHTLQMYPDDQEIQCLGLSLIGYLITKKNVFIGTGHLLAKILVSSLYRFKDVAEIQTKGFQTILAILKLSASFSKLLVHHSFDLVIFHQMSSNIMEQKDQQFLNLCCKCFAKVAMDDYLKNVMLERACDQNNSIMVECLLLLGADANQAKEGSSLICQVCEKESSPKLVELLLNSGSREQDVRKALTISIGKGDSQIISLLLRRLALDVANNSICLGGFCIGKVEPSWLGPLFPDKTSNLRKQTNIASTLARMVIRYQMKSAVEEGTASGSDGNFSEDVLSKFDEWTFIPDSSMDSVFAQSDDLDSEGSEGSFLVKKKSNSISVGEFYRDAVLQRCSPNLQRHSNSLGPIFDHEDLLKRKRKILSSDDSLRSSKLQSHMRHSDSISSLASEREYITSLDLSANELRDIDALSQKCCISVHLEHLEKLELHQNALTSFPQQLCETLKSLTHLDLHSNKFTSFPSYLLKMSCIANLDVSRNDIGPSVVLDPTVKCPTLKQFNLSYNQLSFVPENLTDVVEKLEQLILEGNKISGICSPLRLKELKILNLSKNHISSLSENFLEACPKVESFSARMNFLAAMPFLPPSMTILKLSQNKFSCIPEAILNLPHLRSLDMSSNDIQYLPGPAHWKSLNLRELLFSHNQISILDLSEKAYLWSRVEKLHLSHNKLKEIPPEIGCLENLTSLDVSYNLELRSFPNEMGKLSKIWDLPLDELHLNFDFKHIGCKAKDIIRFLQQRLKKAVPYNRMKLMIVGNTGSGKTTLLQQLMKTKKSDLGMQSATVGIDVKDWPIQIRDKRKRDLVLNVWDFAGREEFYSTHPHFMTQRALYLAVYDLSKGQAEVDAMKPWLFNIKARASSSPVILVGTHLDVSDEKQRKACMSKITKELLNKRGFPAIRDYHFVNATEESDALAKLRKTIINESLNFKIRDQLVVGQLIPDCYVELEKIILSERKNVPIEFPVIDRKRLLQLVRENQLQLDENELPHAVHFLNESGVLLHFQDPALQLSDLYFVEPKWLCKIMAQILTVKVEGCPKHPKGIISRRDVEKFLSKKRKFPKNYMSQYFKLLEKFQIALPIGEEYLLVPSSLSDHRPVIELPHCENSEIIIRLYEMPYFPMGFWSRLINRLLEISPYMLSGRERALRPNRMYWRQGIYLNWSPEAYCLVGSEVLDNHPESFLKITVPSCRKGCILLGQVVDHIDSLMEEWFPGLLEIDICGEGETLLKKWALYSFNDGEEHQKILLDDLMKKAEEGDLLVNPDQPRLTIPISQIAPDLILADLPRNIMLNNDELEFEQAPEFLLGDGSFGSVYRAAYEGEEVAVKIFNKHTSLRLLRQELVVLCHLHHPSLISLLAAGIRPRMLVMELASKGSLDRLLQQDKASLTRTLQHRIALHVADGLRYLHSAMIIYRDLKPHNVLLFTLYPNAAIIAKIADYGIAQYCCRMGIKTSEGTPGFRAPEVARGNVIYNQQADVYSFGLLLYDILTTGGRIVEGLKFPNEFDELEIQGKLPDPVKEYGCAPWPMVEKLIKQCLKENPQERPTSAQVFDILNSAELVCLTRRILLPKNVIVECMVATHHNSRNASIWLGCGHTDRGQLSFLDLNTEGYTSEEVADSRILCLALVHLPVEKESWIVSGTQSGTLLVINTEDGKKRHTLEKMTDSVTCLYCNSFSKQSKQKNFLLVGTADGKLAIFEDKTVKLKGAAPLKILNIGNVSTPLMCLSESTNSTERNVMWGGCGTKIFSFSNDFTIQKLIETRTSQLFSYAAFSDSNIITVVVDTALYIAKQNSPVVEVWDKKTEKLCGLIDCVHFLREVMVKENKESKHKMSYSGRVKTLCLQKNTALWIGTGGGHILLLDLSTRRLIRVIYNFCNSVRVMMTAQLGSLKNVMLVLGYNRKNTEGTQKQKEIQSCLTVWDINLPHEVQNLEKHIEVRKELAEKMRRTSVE
# In short: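 SH-SY5Y cells transduced with BacMam full-length human LRRK2 (MOI 50) for 24 h, then treated with compound (top final 10 μM) for 60 min at 37° C. Lysate pSer935 LRRK2 quantified by AlphaScreen using anti-pS935 and total-LRRK2 antibodies. Values from sigmoidal dose-response fit.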
Compound,IC50 [1] [µM],IC50 [2] [µM]
"COc1nc(N2CC3CC2CO3)cc(-n2ncc3cc(C)c(C4CCN(C5COC5)CC4O)cc32)n1 (single isomer, unassigned) [Example E133]",≤ 0.1,–
"Cc1nc(N2C[C@H]3C[C@@H]2CO3)cc(-n2ncc3cc(C)c(C4CCN(C5CCOC5)CC4F)cc32)n1 (single isomer, unassigned) [Example E148]",≤ 0.1,–
"Cc1nc(N2C[C@@H]3C[C@H]2CO3)cc(-n2ncc3cc(C)c(C4CCN(C5CCOC5)CC4F)cc32)n1 (single isomer, unassigned) [Example E150]",≤ 0.1,–
"Cc1nc(N2CC3(CO)CC2CO3)cc(-n2ncc3cc(C)c(C4CCN(C5CCOC5)CC4)cc32)n1 (single isomer, unassigned) [Example E152, (5-(2-methyl-6-(5-methyl-6-(1-(tetrahydrofuran-3-yl)piperidin-4-yl)-1H-indazol-1-yl)pyrimidin-4-yl)-2-oxa-5-azabicyclo[2.2.1]heptan-1-yl)methanol]",≤ 0.1,–
"Cc1nc(N2C[C@H]3C[C@@H]2CO3)cc(-n2ncc3cc(C)c(C4CCN(CCC(=O)O)CC4F)cc32)n1 (single isomer, unassigned) [Example E154]",≤ 0.1,–
"Cc1nc(N2C[C@@H]3C[C@H]2CO3)cc(-n2ncc3cc(C)c(C4CCN(CCC(=O)O)CC4F)cc32)n1 (single isomer, unassigned) [Example E156]",≤ 0.1,–
"Cc1nc(N2C[C@H]3C[C@@H]2CO3)cc(-n2ncc3cc(C)c(C4CCN(C5COCC5O)CC4)cc32)n1 (single isomer, unassigned) [Example E171]",≤ 0.1,–
"COc1nc(N2CC3CCC(C2)O3)cc(-n2ncc3cc(C)c(C4CCNCC4)cc32)n1 [Example E62, 3-(2-methoxy-6-(5-methyl-6-(piperidin-4-yl)-1H-indazol-1-yl)pyrimidin-4-yl)-8-oxa-3-azabicyclo[3.2.1]octane 2,2,2-trifluoroacetate]",–,≤ 1
"Cc1nc(N2CC3CCC(C2)O3)cc(-n2ncc3cc(C)c(C4CCNCC4)cc32)n1 [Example E63, 3-(2-methyl-6-(5-methyl-6-(piperidin-4-yl)-1H-indazol-1-yl)pyrimidin-4-yl)-8-oxa-3-azabicyclo[3.2.1]octane 2,2,2-trifluoroacetate]",–,≤ 1
"[2H]C([2H])([2H])Oc1nc(N2C[C@H]3C[C@@H]2CO3)cc(-n2ncc3cc(C)c(C4CCN(C5COC5)CC4)cc32)n1 [Example E72, (1R,4R)-5-(6-(5-methyl-6-(1-(oxetan-3-yl)piperidin-4-yl)-1H-indazol-1-yl)-2-(trideuteriummethoxy)pyrimidin-4-yl)-2-oxa-5-azabicyclo[2.2.1]heptane]",–,≤ 0.01
"[2H]C([2H])([2H])Oc1nc(N2C[C@@H]3C[C@H]2CO3)cc(-n2ncc3cc(C)c(C4CCN(C5COC5)CC4)cc32)n1 [Example E73, (1S,4S)-5-(6-(5-methyl-6-(1-(oxetan-3-yl)piperidin-4-yl)-1H-indazol-1-yl)-2-(trideuteriummethoxy)pyrimidin-4-yl)-2-oxa-5-azabicyclo[2.2.1]heptane]",–,≤ 1
"Cc1nc(N2CC3CC(C2)C3C(=O)O)cc(-n2ncc3cc(C)c(C4CCOCC4)cc32)n1 (stereo not shown) [Example E80, 3-{2-Methyl-6-[5-methyl-6-(tetrahydro-pyran-4-yl)-indazol-1-yl]-pyrimidin-4-yl}-3-aza-bicyclo[3.1.1]heptane-6-carboxylic Acid]",–,≤ 1
"COc1nc(N2CC3CC(C2)C3C(=O)O)cc(-n2ncc3cc(C)c(OC(C)C)cc32)n1 (stereo not shown) [Example E81, 3-(6-(6-isopropoxy-5-methyl-1H-indazol-1-yl)-2-methoxypyrimidin-4-yl)-3-azabicyclo[3.1.1]heptane-6-carboxylic Acid]",–,≤ 0.01
"Cc1nc(N2C[C@@]3(CO)C[C@@H]2CO3)cc(-n2ncc3cc(C)c(C4CCN([C@H]5CCOC5)CC4)cc32)n1 [Example E142, ((1R,4R)-5-(2-methyl-6-(5-methyl-6-(1-((S)-tetrahydrofuran-3-yl)piperidin-4-yl)-1H-indazol-1-yl)pyrimidin-4-yl)-2-oxa-5-azabicyclo[2.2.1]heptan-1-yl)methanol]",≤ 0.1,–
"COC(=O)CCN1CCC(c2cc3c(cnn3-c3cc(N4C[C@@H]5C[C@H]4CO5)nc(C)n3)cc2C)CC1 [Example E163, Methyl 3-(4-(1-(6-((1S,4S)-2-oxa-5-azabicyclo[2.2.1]heptan-5-yl)-2-methylpyrimidin-4-yl)-5-methyl-1H-indazol-6-yl)piperidin-1-yl)propanoate]",≤ 0.1,–
"COc1nc(N2C[C@@H]3C[C@H]2CO3)cc(-n2ncc3cc(C)c(C4CCN(CCC(=O)O)CC4)cc32)n1 [Example E165, 3-(4-(1-(6-((1S,4S)-2-oxa-5-azabicyclo[2.2.1]heptan-5-yl)-2-methoxypyrimidin-4-yl)-5-methyl-1H-indazol-6-yl)piperidin-1-yl)propanoic Acid]",–,≤ 1
"Cc1nc(N2CC3(CO)CC2CO3)cc(-n2ncc3cc(C)c(C4CCN(C5COC5)CC4)cc32)n1 (stereo not shown) [Example E166, (5-(2-methyl-6-(5-methyl-6-(1-(oxetan-3-yl)piperidin-4-yl)-1H-indazol-1-yl)pyrimid-in-4-yl)-2-oxa-5-azabicyclo[2.2.1]heptan-1-yl)methanol]",≤ 0.1,–
"Cc1nc(N2C[C@H]3C[C@@H]2CO3)cc(-n2ncc3cc(C)c(C4C5CN(C6CCOC6)CC54)cc32)n1 (stereo partly drawn) [Example E179, (1R,4R)-5-(2-methyl-6-(5-methyl-6-(3-((S)-tetrahydrofuran-3-yl)-3-azabicyclo-[3.1.0]hexan-6-yl)-1H-indazol-1-yl)pyrimidin-4-yl)-2-oxa-5-azabicyclo[2.2.1]heptane]",–,≤ 1
"Cc1nc(N2C[C@H]3C[C@@H]2CO3)cc(-n2ncc3cc(C)c(C4C5CN(CCS(C)(=O)=O)CC54)cc32)n1 (stereo partly drawn) [Example E180, (1R,4R)-5-(2-methyl-6-(5-methyl-6-(3-(2-(methylsulfonyl)ethyl)-3-azabicyclo[3.1.0]hexan-6-yl)-1H-indazol-1-yl)pyrimidin-4-yl)-2-oxa-5-azabicyclo[2.2.1]heptane]",–,≤ 1
